Each block holds one compound with its values, some of them ahead of it.
Columns and labels:
[1] = following chronic administration; cited from earlier work
GABA-AT = GABA-AT (Sus scrofa, UniProt P80147); test: Substrate activity for GABA-AT; format: biochemical, pig; conditions: for Km: substrate, Hanes-Woolf plots, pH 8.5, room temperature, 16 h
Chain of GABA-AT (P80147 29-500): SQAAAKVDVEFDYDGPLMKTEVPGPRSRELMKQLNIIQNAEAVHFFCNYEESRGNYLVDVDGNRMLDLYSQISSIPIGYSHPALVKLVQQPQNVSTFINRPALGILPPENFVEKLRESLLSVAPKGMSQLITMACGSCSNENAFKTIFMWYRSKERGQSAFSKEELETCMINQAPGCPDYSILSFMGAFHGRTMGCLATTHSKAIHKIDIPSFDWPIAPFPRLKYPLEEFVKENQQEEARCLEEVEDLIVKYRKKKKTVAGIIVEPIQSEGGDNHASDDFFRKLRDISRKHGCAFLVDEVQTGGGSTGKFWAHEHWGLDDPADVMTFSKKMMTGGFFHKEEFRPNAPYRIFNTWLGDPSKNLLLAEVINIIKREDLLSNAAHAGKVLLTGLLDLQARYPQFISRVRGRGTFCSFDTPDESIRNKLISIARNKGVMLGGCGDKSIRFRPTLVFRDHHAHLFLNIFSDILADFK

Structure (SMILES): C=CC(N)CCC(=O)O (centres unmarked) [Compound 1, 4-aminohex-5-enoic acid]
patients exhibiting irreversible abnormalities in peripherial vision [1]: 25–50%

Structure (SMILES): Cl.NCc1ccc(C(=O)O)o1 [Compound 4a, 5-(Aminomethyl)furan-2-carboxylic acid hydrochloride]
kcat/Km (GABA-AT; substrate efficiency): highest kcat/Km value

Km (GABA-AT): much higher
Structure (SMILES): Cl.NCc1ccc(C(=O)O)s1 [Compound 4b, 5-(Aminomethyl)thiophene-2-carboxylic acid hydrochloride]

Km (GABA-AT): much higher
Structure (SMILES): Cl.NCc1ccc(C(=O)O)[nH]1 [Compound 4c]

Structure (SMILES): Cl.NCc1coc(C(=O)O)c1 [Compound 5a, 4-(Aminomethyl)furan-2-carboxylic acid hydrochloride]
Km, fold lower than that of GABA (GABA-AT; relative to GABA): approximately 4 fold

Structure (SMILES): Cl.NCc1cscc1C(=O)O [Compound 6b, 4-(Aminomethyl)thiophene-3-carboxylic acid hydrochloride]
substrate activity (transamination) (GABA-AT): Transamination was observed | Km (GABA-AT): > 10 mM

^Hk/^Dk for substrate turnover (kinetic isotope effect) (GABA-AT; [D2]-5a evaluated alongside unlabeled 5a): 1.22 ± 0.07
Structure (SMILES): Cl.[2H]C([2H])(N)c1coc(C(=O)O)c1 [[D2]-5a]

Reference: paper PMC3448830 (Bioorganic & medicinal chemistry, 2012)
